The values that follow come from US20110190392A1, “Polysaccharide Based Antimicrobial Formulations” (priority 2010, published 2011).

Common to all, as to format: cell-based
One assay relates to Ad-5. Briefly: Antiviral log reduction (Table 2B).
Assay [1] concerns Acinetobacter baumanii ATCC 19606. As to the kind of experiment: MBC of NVC-422 (Table 2A). As to conditions: Acinetobacter baumannii, ATCC19606.
In assay [2] the test system is Acinetobacter calcoaceticus ATCC 51432. As to the kind of experiment: MBC of NVC-422 (Table 2A). To be noted: ATCC51432.
Assay [3] concerns Enterobacter aerogenes ATCC 51697. Briefly: MBC of NVC-422 (Table 2A). To be noted: Klebsiella aerogenes, ATCC51697.
Assay [4] deals with Enterococcus faecalis ATCC 29212. Briefly: MBC of NVC-422 (Table 2A). To be noted: ATCC29212.
In assay [5] the test system is Enterococcus faecium [VRE] ATCC 51559. Briefly: MBC of NVC-422 (Table 2A).
Assay [6] has as its system Escherichia coli ATCC 25922. As to the kind of experiment: MBC of NVC-422 (Table 2A). To be noted: ATCC25922.
Assay [7] deals with Haemophilus influenzae ATCC 49144. Briefly: MBC of NVC-422 (Table 2A). As to conditions: ATCC49144.
In assay [8] the test system is Klebsiella pneumoniae ATCC 10031. As to the kind of experiment: MBC of NVC-422 (Table 2A). To be noted: ATCC10031.
For assay [9], the system named is Proteus mirabilis ATCC 29245. As to the kind of experiment: MBC of NVC-422 (Table 2A). As to conditions: ATCC29245.
Assay [10] deals with Pseudomonas aeruginosa ATCC 27853. As to the kind of experiment: MBC of NVC-422 (Table 2A). As to conditions: ATCC27853.
The test system of assay [11] is Serratia marcescens ATCC 13880. As to the kind of experiment: MBC of NVC-422 (Table 2A). To be noted: ATCC13880.
The subject of assay [12] is Serratia marcescens ATCC 14756. Briefly: MBC of NVC-422 (Table 2A). To be noted: ATCC14756.
The test system of assay [13] is Staphylococcus aureus ATCC 29213. As to the kind of experiment: MBC of NVC-422 (Table 2A). To be noted: ATCC29213.
Assay [14] deals with Staphylococcus aureus ATCC 6358. Briefly: MBC of NVC-422 (Table 2A). To be noted: ATCC6358.
The subject of assay [15] is Staphylococcus aureus [MRSA] ATCC 33591. As to the kind of experiment: MBC of NVC-422 (Table 2A).
The subject of assay [16] is Staphylococcus epidermidis ATCC 12228. Briefly: MBC of NVC-422 (Table 2A). As to conditions: ATCC12228.
For assay [17], the system named is Staphylococcus hominis ATCC 27844. Briefly: MBC of NVC-422 (Table 2A). To be noted: ATCC27844.
The test system of assay [18] is Staphylococcus sciuri ATCC 49575. As to the kind of experiment: MBC of NVC-422 (Table 2A). To be noted: Mammaliicoccus sciuri, ATCC49575.
Assay [19] deals with Candida albicans ATCC 10231. As to the kind of experiment: MBC of NVC-422 (Table 2A). As to conditions: ATCC10231.
The test system of assay [20] is Candida glabrata ATCC 90030. As to the kind of experiment: MBC of NVC-422 (Table 2A). As to conditions: Nakaseomyces glabratus, ATCC90030.
The subject of the next assay is Influenza A. Briefly: Antiviral log reduction (Table 2B).
The next assay has as its system Rhinovirus-39. Briefly: Antiviral log reduction (Table 2B).
The test system of a further assay is HSV-1. Briefly: Antiviral log reduction (Table 2B).

Take `Nc1ccn(C[C@@H](CO)OCP(=O)(O)O)c(=O)n1` [Cidofovir, reference compound]: the “Log Reduction” value was 0 in the assay with Ad-5 ((Ad5/A549 control)/Cidofovir, column 0.001%) and 0 in the assay with Ad-5 ((Ad5/A549 control)/Cidofovir, column 0.01%).
Regarding `CC(C)(CS(=O)(=O)O)N(Cl)Cl` [NVC-422, N,N-dichloro-2,2-dimethyltaurine], the MBC in [1] is 4 µg/mL; in [2], 2 µg/mL; in [3], 0.5 µg/mL; in [4], 0.5 µg/mL; in assay [5] it was 0.5 µg/mL; in assay [6] it was 2 µg/mL. In addition, the MBC in assay [7] was determined as 0.5 µg/mL; in assay [8], 0.25 µg/mL; in [9], 1 µg/mL; in assay [10], 1 µg/mL; in assay [11], 1 µg/mL; in [12] it was 2 µg/mL. Besides, the MBC amounted to 2 µg/mL in assay [13]; 2 µg/mL in assay [14]; 4 µg/mL in [15]; 0.25 µg/mL in [16]; 4 µg/mL in assay [17]; 0.12 µg/mL in assay [18]. In addition, the values for the MBC in assay [19] and in [20] were 32 µg/mL and 16 µg/mL, respectively. In addition, the “Log Reduction” value in the assay on Influenza A (concentration of NVC-422 0.01%) is 0.3; in the assay with Influenza A (concentration of NVC-422 0.1%), 1.0; in the assay on Influenza A (concentration of NVC-422 1.0%), above 3.8; with Rhinovirus-39 (concentration of NVC-422 0.01%), 1.7; with Rhinovirus-39 (concentration of NVC-422 0.1%) it was above 1.5; in the assay with Ad-5 (Ad-5 + 10% tears, concentration of NVC-422 0.001%), 1.0. Also, the “Log Reduction” value is 1.7 in the assay with Ad-5 (Ad-5 + 10% tears, concentration of NVC-422 0.01%); above 3.8 with Ad-5 (Ad-5 + 10% tears, concentration of NVC-422 0.1%); 2.8 with Ad-5 (Ad-5, concentration of NVC-422 0.001%); 4.3 in the assay with Ad-5 (Ad-5, concentration of NVC-422 0.01%); above 4.3 in the assay on Ad-5 (Ad-5, concentration of NVC-422 0.1%); 4.5 in the assay with HSV-1 (HSV-1 + 10% tears, concentration of NVC-422 0.001%). Moreover, the “Log Reduction” value with HSV-1 (HSV-1 + 10% tears, concentration of NVC-422 0.01%) is listed as above 4.5; in the assay on HSV-1 (HSV-1, concentration of NVC-422 0.001%) it was above 4.5; with HSV-1 (HSV-1, concentration of NVC-422 0.01%), above 4.5.
